Measurements: US20080070954A1, “Acylurea Connected And Sulfonylurea Connected Hydroxamates” (S*BIO PTE LTD., priority 2003, published 2008)

Experiments:
[1] = molecular target: T1, HDAC1 enzyme (recombinant GST-HDAC1) (Homo sapiens, UniProt Q13547); assay: In vitro HDAC assay for determination of IC50 values (BIOMOL fluorescent-based), HDAC1; format: biochemical; settings: 600 nM HDAC1 enzyme, 500 μM Flur de lys generic substrate, 2 h room temperature
T1 construct: Amplification of human HDAC1 and HDAC8 coding region from this cDNA library; made in house; host or cells: SF9 insect cells (baculovirus, pDEST20 vector)
Procedure: (§1) Human cDNA library was prepared using cultured SW620 cells. Amplification of human HDAC1 and HDAC8 coding region from this cDNA library was cloned separately into the baculovirus expression pDEST20 vector and pFASTBAC vector respectively (GATEWAY Cloning Technology, Invitrogen Pte Ltd). The pDEST20-HDAC1 and pFASTBAC-HTGST-HDAC8 constructs were confirmed by DNA sequencing. Recombinant baculovirus was prepared using the Bac-To-Bac method following the manufacturer's instruction (Invitrogen Pte Ltd). Baculovirus titer was determined by plaque assay to be about 10^8 PFU/ml.
(§2) Expression of GST-HDAC1 or HTGST-HDAC8 was done by infecting SF9 cells (Invitrogen Pte Ltd) with pDEST20-HDAC1 or pFASTBAC-GST-HDAC8 baculovirus at MOI=1 for 48 h. Soluble cell lysate was incubated with pre-equilibrated Glutathione Sepharose 4B beads (Amersham) at 4° C. for 2 h. The beads were washed with PBS buffer for 3 times. The GST-HDAC1 protein or GST-HDAC8 protein was eluted by elution buffer containing 50 mM Tris, pH8.0, 150 mM NaCl, 1% Triton X-100 and 10 mM or 20 mM reduced Glutathione. The purified GST-HDAC1 protein or purified GST-HDAC8 protein was dialyzed with HDAC storage buffer containing 10 mM Tris, pH7.5, 100 mM NaCl and 3 mM MgCl2. 20% Glycerol was added to purified GST-HDAC1 protein or purified GST-HDAC8 before storage at −80° C.
The assay has been carried out in 96 well format and the BIOMOL fluorescent-based HDAC activity assay has been applied. The reaction composed of assay buffer, containing 25 mM Tris pH 7.5, 137 mM NaCl, 2.7 mM KCl, 1 mM MgCl2, 1 mg/ml BSA, tested compounds, 500 nM HDAC8 enzyme or 600 nM HDAC1 enzyme, 200 μM Flur de lys p53 peptide substrate for HDAC8 enzyme or 500 μM Flur de lys generic substrate for HDAC1 enzyme and subsequently was incubated at room temperature for 2 h. Flur de lys Developer was added and the reaction was incubated for 10 min. Briefly, deacetylation of the substrate sensitizes it to the developer, which then generates a fluorophore. The fluorophore is excited with 360 nm light and the emitted light (460 nm) is detected on a fluorometric plate reader (Tecan Ultra Microplate detection system, Tecan Group Ltd.).
(§3) The analytical software, Prism 3.0® (GraphPad Software Inc) has been used to generate IC50 from a series of data.

[2] = molecular target: T2, HDAC8 enzyme (recombinant GST-HDAC8) (Homo sapiens, UniProt Q9BY41); assay: In vitro HDAC assay for determination of IC50 values (BIOMOL fluorescent-based), HDAC8; format: biochemical; settings: 500 nM HDAC8 enzyme, 200 μM Flur de lys p53 peptide substrate, 2 h room temperature
T2 construct: Amplification of human HDAC1 and HDAC8 coding region from this cDNA library; made in house; host or cells: SF9 insect cells (baculovirus, pFASTBAC vector)
T2 sequence (Q9BY41 1-377): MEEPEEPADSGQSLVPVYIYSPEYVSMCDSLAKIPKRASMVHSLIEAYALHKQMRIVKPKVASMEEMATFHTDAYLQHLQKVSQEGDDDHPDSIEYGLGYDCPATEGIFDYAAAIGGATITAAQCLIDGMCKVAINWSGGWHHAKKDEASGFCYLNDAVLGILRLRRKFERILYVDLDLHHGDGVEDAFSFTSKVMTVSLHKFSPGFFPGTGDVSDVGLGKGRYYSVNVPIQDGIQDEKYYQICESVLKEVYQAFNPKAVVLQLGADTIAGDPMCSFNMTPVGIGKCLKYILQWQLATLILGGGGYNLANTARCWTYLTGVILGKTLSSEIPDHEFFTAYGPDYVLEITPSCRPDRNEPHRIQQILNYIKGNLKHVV
Procedure: as §1, with “The pDEST20-HDAC1 and pFASTBAC-HTGST-HDAC8 constructs were confirmed by DNA sequencing.” left out, “Ltd).” for “Ltd). Baculovirus titer was determined by plaque assay to be about 10^8 PFU/ml.”
as §2
The assay has been carried out in 96 well format and the BIOMOL fluorescent-based HDAC activity assay has been applied. […] Flur de lys Developer was added and the reaction was incubated for 10 min. Briefly, deacetylation of the substrate sensitizes it to the developer, which then generates a fluorophore. The fluorophore is excited with 360 nm light and the emitted light (460 nm) is detected on a fluorometric plate reader (Tecan Ultra Microplate detection system, Tecan Group Ltd.).
as §3

[3] = system: Colo205 human colon cancer cell line; assay: Cell-based proliferation assay for determination of GI50 values, Colo205; settings: COLO 205, Colo205 cells, 96 h treatment, cyquant assay, read-out: Colo 205 Gl50
Procedure: (§4) Human colon cancer cell lines (Colo205) and human breast cancer cell lines (MDA-MB435 and MDA-MB231) were obtained from ATCC. Colo205 cells were cultivated in RPMI 1640 containing 2 mM L-Glutamine, 5% FBS, 1.0 mM Na Pyruvate. MDA-MB231 cells were cultivated in RPMI 1640 containing 2 mM L-glutamine, 5% FBS. MDA-MB435 cells were cultivated in DMEM containing 2 mM L-Glutamine, 5% FBS. Colo205 cells were seeded in 96-wells plate at 5000 cells per well respectively. MDA-MB435 and MDA-MB231 cells were seeded in 96-wells plate at 6000 cells per well. The plates were incubated at 37° C., 5% CO2, for 24 h. Cells were treated with compounds at various concentrations for 96 h. Cell growth was then monitored using cyquant cell proliferation assay (Invitrogen Pte Ltd). Dose response curves were plotted to determine GI50 values for the compounds using XL-fit (ID Business Solution, Emeryville, Calif.).

[4] = system: MDA-MB435 human breast cancer cell line; assay: Cell-based proliferation assay for determination of GI50 values, MDA-MB435; settings: MDA-MB435 cells, 96 h treatment, cyquant assay
Procedure: as §4

[5] = system: acetylated histone H3 in Colo205 cells; assay: Histone acetylation assay (western blot), histone H3; format: cell-based, human; design: key: “Active” means accumulation of acetylated histone was observed when compared with control (without compound); settings: Colo205 cells, 0.1, 1, 5 and 10 μM, 24 h
Procedure: (§5) A hallmark of histone deacetylase (HDAC) inhibition is the increase in the acetylation level of histones. Histone acetylation, including H3, H4, H2A and H2B can be detected by immuno-blotting (western-blot). Colo205 cells, approximately 1.5×10^6 cells/10 cm dish, were seeded in the previously described medium, cultivated for 24 h and subsequently treated with HDAC inhibitory agents at 0.1, 1, 5 and 10 μM final concentration. After 24 h, cells were harvested and lysed according to the instruction from Sigma Mammalian Cell Lysis Kit. The protein concentration was quantified using BCA method (Sigma Pte Ltd). The protein lysate was separated using 4-12% bis-tris SDS-PAGE gel (Invitrogen Pte Ltd) and was transferred onto PVDF membrane (BioRad Pte Ltd). The membrane was probed separately using primary antibody specific for acetylated H3, acetylated H4 or acetylated H2A (Upstate Pte Ltd). The detection antibody, goat anti rabbit antibody conjugated with Horse radish peroxidase (HRP) was used according to the manufacturer instruction (Pierce Pte Ltd). After removing the detection antibody from the membrane, an enhanced chemiluminescent substrate for detection of HRP (Pierce Pte Ltd) was added onto the membrane. After removing the substrate, the membrane was exposed to an X-ray film (Kodak) for 1 sec-20 mins. The X-ray film was developed using the X-ray film processor. The density of each band observed on the developed film could be analysed using UVP Bioimaging software (UVP, Inc, Upland, Calif.). The values were then normalized against the density of actin in the corresponding samples to obtain the expression of the protein.

[6] = system: acetylated histone H4 in Colo205 cells; assay: Histone acetylation assay (western blot), histone H4; format: cell-based, human; design: key: “Active” means accumulation of acetylated histone was observed when compared with control (without compound); settings: Colo205 cells, 0.1, 1, 5 and 10 μM, 24 h
Procedure: as §5

[7] = system: MDA-MB231 human breast cancer cell line; assay: Cell-based proliferation assay for determination of GI50 values, MDA-MB231; settings: MDA-MB231 cells, 96 h treatment, cyquant assay
Procedure: as §4

[8] = system: acetylated histone H2B in Colo205 cells; assay: Histone acetylation assay (western blot), histone H2B; format: cell-based, human; design: key: “Active” means accumulation of acetylated histone was observed when compared with control (without compound); settings: Colo205 cells, 0.1, 1, 5 and 10 μM, 24 h
Procedure: as §5, with “After removing the substrate, the membrane was exposed to an X-ray film (Kodak) for 1 sec-20 mins. The X-ray film was developed using the X-ray film processor.” left out, “The values were then normalized against the density of actin in the corresponding samples to obtain the expression of the protein.” left out

[9] = system: acetylated histone H2A in Colo205 cells; assay: Histone acetylation assay (western blot), histone H2A; format: cell-based, human; design: key: “Active” means accumulation of acetylated histone was observed when compared with control (without compound); settings: Colo205 cells, 0.1, 1, 5 and 10 μM, 24 h
Procedure: as §5, with “After removing the substrate, the membrane was exposed to an X-ray film (Kodak) for 1 sec-20 mins. The X-ray film was developed using the X-ray film processor.” left out, “The values were then normalized against the density of actin in the corresponding samples to obtain the expression of the protein.” left out

T1 sequence (Q13547 whole entry): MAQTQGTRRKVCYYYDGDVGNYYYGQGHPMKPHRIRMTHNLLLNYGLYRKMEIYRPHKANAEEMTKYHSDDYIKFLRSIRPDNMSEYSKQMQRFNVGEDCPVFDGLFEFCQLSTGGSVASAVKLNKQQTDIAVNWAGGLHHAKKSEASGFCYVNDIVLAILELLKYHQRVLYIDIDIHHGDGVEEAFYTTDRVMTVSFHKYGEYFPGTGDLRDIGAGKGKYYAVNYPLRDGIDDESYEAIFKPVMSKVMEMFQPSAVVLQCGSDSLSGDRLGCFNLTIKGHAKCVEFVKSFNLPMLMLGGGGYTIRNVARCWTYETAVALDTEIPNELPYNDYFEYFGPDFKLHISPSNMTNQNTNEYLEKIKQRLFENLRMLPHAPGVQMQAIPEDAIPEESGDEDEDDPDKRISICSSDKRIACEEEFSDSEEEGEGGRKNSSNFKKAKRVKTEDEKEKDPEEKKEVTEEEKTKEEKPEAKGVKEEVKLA

Work on `Cc1ccc(S(=O)(=O)NC(=O)NCCCCCC(=O)NO)cc1` [Example 1, 6-[3-(toluene-4-sulfonyl)ureido]-hexanoic acid hydroxyamide] yielded an IC50 [1] greater than 100000 nM and an IC50 [2] of 790 nM.

`Cc1ccc(S(=O)(=O)NC(=O)Nc2ccc(/C=C/C(=O)NO)cc2)cc1` [Example 2] gave an IC50 [1] of 2610 nM and an IC50 [2] of 40 nM.

Compound `Cc1ccc(S(=O)(=O)NC(=O)NCc2ccc(C(=O)NO)cc2)cc1` [Example 4] has an IC50 [1] of 2920 nM and an IC50 [2] of 49 nM.

`Cc1ccc(S(=O)(=O)NC(=O)Nc2ccc(CC(=O)NO)cc2)cc1` [Example 5, N-Hydroxy-2-{4-[3-(toluene-4-sulfonyl)ureido]-phenyl}acetamide] was tested, and the IC50 [1] was greater than 100000 nM and the IC50 [2] was 140 nM.

In the case of `O=C(NCc1ccc(C(=O)NO)cc1)NC(=O)c1ccccc1` [Example 6, 4-(3-Benzoyl-ureidomethyl)-N-hydroxy-benzamide], the GI50 [3] is reported as 1910 nM, the IC50 [1] is reported as 130 nM and the “MDA-MB435 Gl50” value [4] is reported as 1.24 µM. The “Histone 3 acetylation” value [5] was “Active”, the “Histone 4 acetylation” value [6] was “Active” and the IC50 [2] was 41 nM. The “MDA-MB231 Gl50” value [7] was 1.92 µM.

`O=C(Cc1cccc(NC(=O)NC(=O)c2ccccc2)c1)NO` [Example 7, 2-[3-(3-Benzoyl-ureido)-phenyl]-N-hydroxy-acetamide] gave an IC50 [1] greater than 100000 nM and an IC50 [2] of 150 nM.

Compound `O=C(Cc1ccc(NC(=O)NC(=O)c2ccccc2)cc1)NO` [Example 8, 2-[4-(3-Benzoyl-ureido)-phenyl]-N-hydroxy-acetamide] has an IC50 [1] greater than 100000 nM and an IC50 [2] of 72 nM.

`O=C(CCCCCNC(=O)NC(=O)c1ccccc1)NO` [Example 10, 6-(3-Benzoyl-ureido)-hexanoic acid hydroxyamide] was tested, and the “Histone 2B acetylation” value [8] was “Active”, the GI50 [3] was 1890 nM and the IC50 [1] was 56 nM. For the same compound, the “MDA-MB435 Gl50” value [4] was 1.79 µM, the “Hisotne 2A acetylation” value [9] was “Active” and the “Histone 3 acetylation” value [5] was “Active”. The “Histone 4 acetylation” value [6] was “Active”, the IC50 [2] was 1070 nM and the “MDA-MB231 Gl50” value [7] was 1.03 µM.

For `O=C(CCCCCCCNC(=O)NC(=O)c1ccccc1)NO` [Example 12, 8-(3-Benzoyl-ureido)-octanoic acid hydroxyamide], the GI50 [3] was 8030 nM, the IC50 [1] was 98 nM and the IC50 [2] was 400 nM.

`O=C(CCCCCCNC(=O)NC(=O)c1ccccc1)NO` [Example 13, 7-(3-Benzoyl-ureido)-heptanoic acid hydroxyamide] was tested, and the GI50 [3] was 2680 nM, the IC50 [1] was 150 nM and the “Histone 3 acetylation” value [5] was “Active”. The IC50 [2] was 270 nM.

`Cc1ccc(S(=O)(=O)NC(=O)NCCCCCCCC(=O)NO)cc1` [Example 14] was tested, and the IC50 [1] was 1130 nM and the IC50 [2] was 51 nM.

With `O=C(CCCCCNC(=S)NC(=O)c1ccccc1)NO` [Example 18, 6-(3-Benzoyl-thioureido)-hexanoic acid hydroxyamide] the GI50 [3] was 2670 nM, the IC50 [1] was 27 nM and the “Histone 3 acetylation” value [5] was “Active”. The IC50 [2] was 520 nM.

For `O=C(/C=C/c1ccc(CN(CCc2ccccc2)C(=O)NC(=O)c2ccccc2)cc1)NO` [Example 23, 3-[4-(3-Benzoyl-1-phenethyl-ureidomethyl)-phenyl]-N-hydroxy-acrylamide], the GI50 [3] was 150 nM, the IC50 [1] was 12 nM and the “Histone 3 acetylation” value [5] was “Active”. For the same compound, the IC50 [2] was 200 nM and the “MDA-MB231 Gl50” value [7] was 0.26 µM.

With `O=C(/C=C/c1ccc(CN(CCc2ccc(Br)cc2)C(=O)NC(=O)c2ccccc2)cc1)NO` [Example 25, 3-(4-{3-Benzoyl-1-[2-(4-bromo-phenyl)-ethyl]-ureidomethyl}-phenyl)-N-hydroxy-acrylamide] the GI50 [3] was 160 nM.

Compound `O=C(NO)c1ccc(CN2CCN(C(=O)NC(=O)c3ccccc3)CC2)cc1` [Example 30, 4-(4-Benzoylaminocarbonyl-piperazin-1-ylmethyl)-N-hydroxy-benzamide] has an IC50 [1] of 2870 nM and an IC50 [2] of 460 nM.

In the case of `O=C(/C=C/c1ccc(CN(CCN2CCCCC2)C(=O)NC(=O)c2ccccc2)cc1)NO` [Example 46, 3-{4-[3-Benzoyl-1-(2-piperidin-1-yl-ethyl)-ureidomethyl]-phenyl}-N-hydroxy-acrylamide], the GI50 [3] is reported as 630 nM, the IC50 [1] is reported as 48 nM and the “Histone 3 acetylation” value [5] is reported as “Active”. The IC50 [2] was 230 nM.

Compound `O=C(/C=C/c1ccc(CN(CCN2CCCC2)C(=O)NC(=O)c2ccccc2)cc1)NO` [Example 47, 3-{4-[3-Benzoyl-1-(2-pyrrolidin-1-yl-ethyl)-ureidomethyl]-phenyl}-N-hydroxy-acrylamide] has an IC50 [1] of 24 nM and an IC50 [2] of 250 nM.
